Experiments:
Conditions in all cases: 72 h
Caco-2 [1] = assay: cell viability relative to DMSO; higher = less toxic
Calu-3 [2] = assay: as above
HepG2 [3] = assay: as above
U2OS [4] = assay: as above
Vero E6 [5] = assay: as above
Caco-2 [6] = assay: relative viability EC50 (midpoint between 100% and the lowest measured viability); higher = less toxic
Calu-3 [7] = assay: as above
HepG2 [8] = assay: as above
U2OS [9] = assay: as above
Vero E6 [10] = assay: as above
Caco-2 [11] = assay: drug sensitivity score (DSS) for viability; higher = more toxic; extreme values may be limits of the assay
Calu-3 [12] = assay: as above
HepG2 [13] = assay: as above
U2OS [14] = assay: as above
Vero E6 [15] = assay: as above

| SMILES | cell viability (Caco-2 [1]; 1 nM) | cell viability (Caco-2 [1]; 10 nM) | cell viability (Caco-2 [1]; 100 nM) | cell viability (Caco-2 [1]; 1000 nM) | cell viability (Caco-2 [1]; 10000 nM) | cell viability (Calu-3 [2]; 1 nM) | cell viability (Calu-3 [2]; 10 nM) | cell viability (Calu-3 [2]; 100 nM) | cell viability (Calu-3 [2]; 1000 nM) | cell viability (Calu-3 [2]; 10000 nM) | cell viability (HepG2 [3]; 1 nM) | cell viability (HepG2 [3]; 10 nM) | cell viability (HepG2 [3]; 100 nM) | cell viability (HepG2 [3]; 1000 nM) | cell viability (HepG2 [3]; 10000 nM) | cell viability (U2OS [4]; 1 nM) | cell viability (U2OS [4]; 10 nM) | cell viability (U2OS [4]; 100 nM) | cell viability (U2OS [4]; 1000 nM) | cell viability (U2OS [4]; 10000 nM) | cell viability (Vero E6 [5]; 1 nM) | cell viability (Vero E6 [5]; 10 nM) | cell viability (Vero E6 [5]; 100 nM) | cell viability (Vero E6 [5]; 1000 nM) | cell viability (Vero E6 [5]; 10000 nM) | relative viability EC50 (Caco-2 [6]) | relative viability EC50 (Calu-3 [7]) | relative viability EC50 (HepG2 [8]) | relative viability EC50 (U2OS [9]) | relative viability EC50 (Vero E6 [10]) | drug sensitivity score (Caco-2 [11]) | drug sensitivity score (Calu-3 [12]) | drug sensitivity score (HepG2 [13]) | drug sensitivity score (U2OS [14]) | drug sensitivity score (Vero E6 [15]) |
| --- | --- | --- | --- | --- | --- | --- | --- | --- | --- | --- | --- | --- | --- | --- | --- | --- | --- | --- | --- | --- | --- | --- | --- | --- | --- | --- | --- | --- | --- | --- | --- | --- | --- | --- | --- |
| O=C(/C=C/c1ccc(CN(CCO)CCc2c[nH]c3ccccc23)cc1)NO [dacinostat] | 96.5% | 101% | 38.7% | 0.3% | 0.8% | 98.7% | 90.1% | 56.5% | 11.3% | 5.5% | 104% | 82% | 26.1% | -0.4% | -0.4% | 98.1% | 101% | 66.4% | 1.3% | 0.5% | 108% | 103% | 47.8% | -0.4% | -0.3% | 0.083 µM | 0.109 µM | 0.0395 µM | 0.131 µM | 0.0966 µM | 25.2 | 21.5 | 28.4 | 22.6 | 24.4 |
| C[C@@H]1C[C@H]2[C@@H]3CCC4=CC(=O)C=C[C@]4(C)[C@@]3(F)[C@@H](O)C[C@]2(C)[C@H]1C(=O)CO [desoximetasone] | 94.1% | 90.1% | 88% | 95.2% | 105% | 86.2% | 95% | 101% | 101% | 88.8% | 102% | 95.7% | 102% | 91.3% | 109% | 98.3% | 97.2% | 91.9% | 92.9% | 101% | 93% | 91.3% | 93.2% | 88.5% | 99% | > 10 µM | > 10 µM | > 10 µM | > 10 µM | > 10 µM | 0 | 0 | 0 | 0 | 0 |
| CCCCCN(CCCOC)C(=O)[C@@H](CCC(=O)O)NC(=O)c1ccc(Cl)c(Cl)c1 [dexloxiglumide] | 92.1% | 82.1% | 87.5% | 86.9% | 107% | 100% | 93.3% | 96.4% | 95.7% | 93% | 94.5% | 105% | 89.6% | 104% | 108% | 92.2% | 92.1% | 99.5% | 91.9% | 104% | 89.4% | 97.8% | 91.1% | 96.1% | 109% | > 10 µM | > 10 µM | > 10 µM | > 10 µM | > 10 µM | 0.1 | 0 | 0 | 0 | 0 |
| CN1C(=O)CN=C(c2ccccc2)c2cc(Cl)ccc21 [diazepam] | 104% | 101% | 85.6% | 87.6% | 96% | 110% | 92.4% | 96.6% | 98% | 110% | 94.8% | 105% | 101% | 100% | 101% | 107% | 102% | 107% | 99.6% | 103% | 97.8% | 100% | 101% | 98.6% | 86.7% | > 10 µM | > 10 µM | > 10 µM | > 10 µM | > 10 µM | 2.2 | 0 | 0 | 0 | 0.2 |
| NS(=O)(=O)c1cc(Cl)c(Cl)c(S(N)(=O)=O)c1 [diclofenamide] | 102% | 104% | 112% | 104% | 98.9% | 88.2% | 81.4% | 87.1% | 91% | 88.9% | 97.6% | 103% | 100% | 97% | 101% | 102% | 98% | 106% | 98.7% | 105% | 95.8% | 102% | 96% | 99.1% | 95.3% | > 10 µM | > 10 µM | > 10 µM | > 10 µM | > 10 µM | 0 | 0 | 0 | 0 | 0 |
| C/C=C(/C(=C/C)c1ccc(O)cc1)c1ccc(O)cc1 [dienestrol] | 112% | 96.5% | 105% | 106% | 102% | 98.1% | 91.4% | 92.4% | 84% | 95.7% | 101% | 100% | 98.4% | 110% | 95.3% | 106% | 108% | 107% | 99.9% | 109% | 101% | 107% | 101% | 104% | 94.3% | > 10 µM | > 10 µM | > 10 µM | > 10 µM | > 10 µM | 0 | 0 | 0 | 0 | 0 |
| CC/C=C\C/C=C\C/C=C\C/C=C\C/C=C\C/C=C\CCC(=O)OCC [doconexent-ethyl-ester] | 96.9% | 108% | 96.1% | 96.5% | 100% | 99.1% | 104% | 104% | 103% | 108% | 100% | 98.9% | 87.1% | 107% | 87.2% | 93.6% | 96.9% | 97.3% | 103% | 99.8% | 99.5% | 101% | 98.9% | 102% | 102% | > 10 µM | > 10 µM | > 10 µM | > 10 µM | > 10 µM | 0 | 0 | 0 | 0 | 0 |

Source: the supplement of paper PMC13380429
